Test results reported in patent publication US12421205B2, “GLP-1 receptor agonist” (HYUNDAI PHARM CO., LTD., priority 2019, dated 2025).

How the values were obtained:
human GLP-1 receptor = target: T1, human GLP-1 receptor (Homo sapiens, UniProt P43220); test: cAMP activity test (cAMP dynamic HTRF kit) in CHO-K1/GLP-1 receptor-expressing cells; type: cell-based; conditions: cAMP activity, CHO-K1/GLP-1 receptor-expressing cells; read-out: EC50
T1 construct: host or cells: CHO-K1
Protocol: The next day, the medium was removed, and a 50 uL of HBSS medium containing 0.1% BSA, 0.5 mM IBMX, and 5 mM HEPES was added to each well. […] The cAMP activity was measured according to the manufacturer's instructions using the cAMP dynamic HTRF kit (Cisbio, 62AM4PEC). After incubation, the medium was discarded, and the cells were lysed. cAMP-d2 and anti-cAMP cryptate conjugate were added thereto and reacted for 3 hours. […] Intracellular cAMP competes with cAMP-d2 for anti-cAMP cryptate, and the measured signal of fluorescence resonance energy transfer (FRET) is inversely proportional to intracellular cAMP.

hERG = target: T2, hERG (Homo sapiens, UniProt Q12809); test: hERG inhibition test (Predictor hERG Fluorescence Polarization assay kit); type: binding; conditions: probe kit Tracer (fluorescent hERG ligand), hERG % inhibition at 10 uM, relative to E-4031 and solvent control
T2 construct: purchased Invitrogen PV5365
Protocol: To measure the hERG (Human ether-a-go-go-related gene) channel inhibition rate of the compound according to the present invention, the following test was performed using a Predictor hERG Fluorescence Polarization assay kit (Invitrogen, PV5365).
Specifically, a test substance was dissolved in DMSO to prepare a 50 mM solution. A 4 mM solution was prepared by diluting the 50 mM solution with DMSO in a U bottom 96-well plate (SPL, 34096), and was then diluted 100-fold with a test buffer to prepare a 40 uM (4×) solution. The positive control E-4031 (3 mM) provided in the kit was diluted 25-fold with a test buffer to prepare a 120 uM solution) 5 uL of the diluted test substance solution was dispensed into a 384-well assay plate (corning, 3677). hERG Membrane (2×) and Tracer (4×) provided in the kit were respectively added at 10 uL and 5 uL, and then subjected to the reaction at room temperature for 2.5 hours. After completion of the reaction, fluorescence polarization (mP) was measured with a Multimode Plate Reader (Perkin-Elmer, Envision) (excitation wavelength of 531 nm, and emission wavelength 579 nm). The value of the percent inhibitory activity (% inhibition) at 10 uM of each test substance was calculated by the following equation, and the results are shown in Table 2: (% inhibition)=100−{(mP of the compound according to the present invention−E-4031 mP)/(mP of the solvent control−E-4031 mP)}×100

T2 sequence (Q12809 whole entry): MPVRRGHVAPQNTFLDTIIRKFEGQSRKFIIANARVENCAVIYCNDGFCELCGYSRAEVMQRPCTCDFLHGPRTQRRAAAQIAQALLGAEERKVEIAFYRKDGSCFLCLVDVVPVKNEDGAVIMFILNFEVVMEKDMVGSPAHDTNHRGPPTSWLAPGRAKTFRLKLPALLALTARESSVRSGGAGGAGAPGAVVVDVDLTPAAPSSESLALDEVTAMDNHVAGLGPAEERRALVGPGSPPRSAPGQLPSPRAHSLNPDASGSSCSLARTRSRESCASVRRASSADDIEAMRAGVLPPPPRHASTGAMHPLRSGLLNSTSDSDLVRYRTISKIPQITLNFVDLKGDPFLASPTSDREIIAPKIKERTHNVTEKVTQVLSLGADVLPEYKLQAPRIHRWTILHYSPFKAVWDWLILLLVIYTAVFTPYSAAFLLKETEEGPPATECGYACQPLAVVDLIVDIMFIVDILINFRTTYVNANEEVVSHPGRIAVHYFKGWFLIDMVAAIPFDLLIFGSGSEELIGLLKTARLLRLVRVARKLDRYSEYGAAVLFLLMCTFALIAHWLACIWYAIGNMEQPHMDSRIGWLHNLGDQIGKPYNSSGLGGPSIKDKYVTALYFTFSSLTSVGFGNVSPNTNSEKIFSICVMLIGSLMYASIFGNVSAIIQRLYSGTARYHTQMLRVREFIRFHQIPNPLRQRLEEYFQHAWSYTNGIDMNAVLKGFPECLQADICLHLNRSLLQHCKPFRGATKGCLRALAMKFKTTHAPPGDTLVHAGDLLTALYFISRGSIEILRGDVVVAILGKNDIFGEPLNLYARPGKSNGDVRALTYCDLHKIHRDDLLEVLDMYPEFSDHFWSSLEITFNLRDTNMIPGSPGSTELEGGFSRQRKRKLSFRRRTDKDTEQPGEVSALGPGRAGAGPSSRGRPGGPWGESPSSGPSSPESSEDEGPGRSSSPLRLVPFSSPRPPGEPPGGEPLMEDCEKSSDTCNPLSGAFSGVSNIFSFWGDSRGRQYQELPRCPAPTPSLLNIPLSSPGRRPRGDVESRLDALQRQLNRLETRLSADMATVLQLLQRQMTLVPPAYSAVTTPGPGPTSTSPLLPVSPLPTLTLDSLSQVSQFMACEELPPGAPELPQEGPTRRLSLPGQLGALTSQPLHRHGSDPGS
T1 sequence (P43220 24-463): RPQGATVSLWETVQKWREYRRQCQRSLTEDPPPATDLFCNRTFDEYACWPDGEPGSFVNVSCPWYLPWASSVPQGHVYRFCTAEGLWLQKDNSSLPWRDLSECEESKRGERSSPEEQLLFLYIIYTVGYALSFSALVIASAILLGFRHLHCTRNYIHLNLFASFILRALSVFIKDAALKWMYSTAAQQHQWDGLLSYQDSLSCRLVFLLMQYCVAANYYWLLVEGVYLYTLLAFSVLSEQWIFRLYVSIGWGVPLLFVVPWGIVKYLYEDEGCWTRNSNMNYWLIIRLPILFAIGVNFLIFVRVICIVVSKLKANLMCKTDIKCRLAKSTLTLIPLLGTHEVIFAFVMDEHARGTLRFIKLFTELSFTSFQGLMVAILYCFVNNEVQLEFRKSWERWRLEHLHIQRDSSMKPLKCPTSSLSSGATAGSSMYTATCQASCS

Structure (SMILES) | EC50 (human GLP-1 receptor) [nM] | inhibition at 2.5 h, 10 µM (hERG) [%]
COc1cc(-c2cccc(OCc3ccc(C#N)cc3F)n2)ccc1Cc1nc2ccc(C(=O)O)cc2n1CC1CCCO1 (centres unmarked) [Example 64, 2-(4-(6-(4-cyano-2-fluorobenzyloxy)pyridin-2-yl)-2-methoxybenzyl)-1-((tetrahydrofuran-2-yl)methyl)-1H-benzo[d]imidazole-6-carboxylic acid] | 110 | -9.05
O=C(O)c1ccc2nc(Cn3ccc(-c4cccc(OCc5ccc(Cl)cc5F)n4)cc3=O)n(CC3CCO3)c2c1 (centres unmarked) [Example 127, 2-((6-((4-chloro-2-fluorobenzyl)oxy)-2′-oxo-[2,4′-bipyridin]-1′(2′H)-yl)methyl)-1-(oxetan-2-ylmethyl)-1H-benzo[d]imidazole-6-carboxylic acid] | 20 | 2.3
COCCn1c(Cc2ccc(-c3cccc(OCc4ccc(Cl)cc4F)c3)cc2)nc2ccc(C(=O)O)cc21 [Example 22, 2-((3′-(4-chloro-2-fluorobenzyloxy)biphenyl-4-yl)methyl)-1-(2-methoxyethyl)-1H-benzo[d]imidazole-6-carboxylic acid] | 130 | -15.5
N#Cc1ccc(COc2cccc(-c3ccc(Cc4nc5ccc(C(=O)O)cc5n4Cc4ccco4)cc3)n2)c(F)c1 [Example 18, 2-(4-(6-(4-cyano-2-fluorobenzyloxy)pyridin-2-yl)benzyl)-1-(furan-2-ylmethyl)-1H-benzo[d]imidazole-6-carboxylic acid] | 110 | 7.37
Cc1cc(Cc2nc3ccc(C(=O)O)cc3n2Cc2ccco2)ccc1-c1cccc(OCc2ccc(C#N)cc2F)n1 [Example 30, 2-(4-(6-(4-cyano-2-fluorobenzyloxy)pyridin-2-yl)-3-methylbenzyl)-1-(furan-2-ylmethyl)-1H-benzo[d]imidazole-6-carboxylic acid] | 460 | 0.33
COCCn1c(Cc2ccc(-c3cccc(OCc4ccc(Cl)cc4F)n3)cc2C)nc2ccc(C(=O)O)cc21 [Example 53, 2-(4-(6-(4-chloro-2-fluorobenzyloxy)pyridin-2-yl)-2-methylbenzyl)-1-(2-methoxyethyl)-1H-benzo[d]imidazole-6-carboxylic acid] | 39 | 18.7
O=C(O)c1ccc2nc(Cc3ccc(-c4cccc(OCc5ccc(F)c(F)c5)n4)cc3F)n(CC3CCCO3)c2c1 (centres unmarked) [Example 85, 2-(4-(6-(3,4-difluorobenzyloxy)pyridin-2-yl)-2-fluorobenzyl)-1-((tetrahydrofuran-2-yl)methyl)-1H-benzo[d]imidazole-6-carboxylic acid] | 74 | -12.9
O=C(O)c1ccc2nc(Cc3ccc(-c4ccc(F)c(OCc5ccc(Cl)cc5F)n4)c(F)c3)n(C[C@@H]3CCO3)c2c1 [Example 117, (S)-2-(4-(6-((4-chloro-2-fluorobenzyl)oxy)-5-fluoropyridin-2-yl)-3-fluorobenzyl)-1-(oxetan-2-ylmethyl)-1H-benzo[d]imidazole-6-carboxylic acid] | < 3.2 | 12.5
N#Cc1ccc(COc2cccc(-c3ccn(Cc4nc5ccc(C(=O)O)cc5n4C[C@@H]4CCO4)c(=O)c3)n2)c(F)c1 [Example 111, (S)-2-((4-(6-(4-cyano-2-fluorobenzyloxy)pyridin-2-yl)-2-oxopyridin-1(2H)-yl)methyl)-1-(oxetan-2-ylmethyl)-1H-benzo[d]imidazole-6-carboxylic acid] | 20 | 1.32
O=C(O)c1ccc2nc(Cn3ccc(-c4cccc(OCc5ccc(Cl)cc5F)c4)cc3=O)n(CC3CCCO3)c2c1 (centres unmarked) [Example 106, 2-((4-(3-(4-chloro-2-fluorobenzyloxy)phenyl)-2-oxopyridin-1(2H)-yl)methyl)-1-((tetrahydrofuran-2-yl)methyl)-1H-benzo[d]imidazole-6-carboxylic acid] | 110 | -2.71
